Measurements taken from patent US11220498B2, “Neuroprotective aminothiazoles” (priority 2018, dated 2022).

Key:
CSM14.1 cells = assay: Rescue of CSM14.1 neurons from thapsigargin-induced cell death (ATPlite cell viability); type: cell-based; details: Rattus norvegicus, Neuron, 10 μM compound, 2 h preincubation, 15 μM TG for 20 h, read-out: % CSM14.1 Cell Viability after treatment with 15 μM TG in Presence of 10 μM compound
Source text: Ability of compounds to rescue CSM14.1 neurons from thapsigargin-induced cell death. To assess the ability of the compounds to rescue neurons from ER stress-induced cell death, the rat striatel neuroprogenitor cell line CSM14.1 was used. Endoplasmic reticulum (ER) stress has been established as the major cause of neuronal loss in stroke, ischemia, and neurodegeneration (Tajiri, S.; Oyadomari, S.; Yano, S.; Morioka, M.; Gotoh, T.; Hamada, J. I.; Ushio, Y.; Mori, M. Cell Death Differ. 2004, 11, 403-415; Kohno, K.; Higuchi, T.; Ohta, S.; Kumon, Y.; Sakaki, S. Neurosci. Lett. 1997, 224, 17-20; ladecola, C.; Zhang, F.; Casey, R.; Nagayama, M.; Ross, M. E. J. Neurosci. 1997, 17, 9157-9164). Thus, we used the known ER stress-causing agent thapsigargin (TG) to model the compromised state in vitro. TG causes 100% cell death in most cases, and compounds were assessed for neuroprotection by measuring cell viability when dosed at 10 μM. CSM14.1 cells were recovered from cultures by trypsinization and plated in 96-well plates and incubated overnight at 32° C. 5 μl of test compound was added to achieve a final concentration of […]. Salubrinal and DMSO without compound were used as positive and negative controls, respectively. After 2 h of preincubation, TG-containing DMEM was added to give a final concentration of 15 μM and incubated for an additional 20 h. Cell viability was assessed by a cellular ATP content assay (ATPlite, PerkinElmer Life Sciences).

[1] = system: SUMOylation of His-RanGap; assay: HTRF assay measuring increase in SUMOylation of His-RanGap; type: biochemical; details: His-RanGap substrate, SUMO-E1 (SAE), SUMO-E2 (UBC9), GST-SUMO; HTRF ratio 665/620; 30 min at room temperature; triplicate
Method: Assay measuring increase in SUMOylation of His-RanGap. We utilized an HTRF assay containing SUMO-E1 (SAE), SUMO-E2 (UBC9), GST-SUMO and His-RanGap, a known SUMO substrate, as well as the respective fluorescent antibodies. The assay was run in 1536-well plate format and the selected activators were chosen based on their ability to increase the FRET signal over a baseline level. In 1536-well white plates, 2 μl of phosphate buffered saline (assay buffer) was dispensed into columns 1 and 2, and 2 μl of Mixture 1 (37.5 nM E1 and 100 nM His-RanGap-1) in assay buffer (50 mM Tris-HCl pH 7.4, 0.3 mM DTT, 10 mM MgCl2, 0.005% Tween-20), was dispensed into columns 3-48. Using a pintool, 70 nl of 2 mM compounds in DMSO was dispensed to columns 5-48 and 70 nl of DMSO was dispensed to columns 1-4. Using the Thermo Scientific MultiDrop Combi, 2 μL of Mixture 2 (20 mM ATP, 12.5 nM E2 and 30 nM GST-SUMO in buffer) was dispensed to all wells and incubated for 30 min. at room temperature followed by 1 μl of 500 mM KF. Plates were read on a PheraStar in a HTRF mode (Ex: 337 nm; Em: 620/665 nm). The ratio of fluorescence 665 over 620 was utilized as a readout of the assay. Increase in SUMOylation was calculated by comparison to baseline level. Measurements were done in triplicate.

BGMK cells = assay: cells; type: cell-based; details: read-out: % BGMK Cell Viability after treatment with 15 μM TG in Presence of 10 μM compound
Source text: Ability of compounds to rescue BGMK cells from thapsigargin-induced cell death. To assess an orthogonal cell line and further validate the ability of SUMOylation activators to rescue varied cell types, the compounds were also profiled for cytoprotection in BGMK cells. Again, we used the known ER stress-causing agent thapsigargin (TG) to model the compromised state in vitro. BGMKs were subcultured at 1.2×10^4 cells/ml. Wells treated with compound were done so for 2 hr. […] After treatment, all cells were washed and fed fresh DMEM complete media and CCK-8 development vehicle, incubated for 2 hr, and absorbance was measured to assess viability. Controls were DMSO (0% viability) and Salubrinal (47% viability).

**Q.** Which results are given for O=C(Nc1nc(-c2ccccn2)cs1)c1ccc(S(=O)(=O)N2CCCCC2)cc1 [Compound C1, 4-(1-Piperidinylsulfonyl)-N-[4-(2-pyridinyl)-2-thiazolyl]-benzamide]?
**A.** viability at 10 µM (CSM14.1 cells): 40 to 50%; % INCREASE IN SUMOylation over endogenous baseline level [1]: D (D = 40%-60% increase in SUMOylation over baseline levels)

**Q.** How did the “% INCREASE IN SUMOylation over endogenous baseline level” value (from here on “% INCREASE IN SUMOylation”) [1] turn out when CC(=O)Nc1ccc(C(=O)Nc2nc(-c3cccnc3)cs2)cc1 [Compound C2, 4-(Acetylamino)-N-[4-(3-pyridinyl)-2-thiazolyl]-benzamide] was run?
**A.** Its value is “A (A = 10%-20% increase)”.

**Q.** Which results are given for O=C(Nc1nc(-c2ccccn2)cs1)c1ccc2c(c1)OCCO2 [Compound C3, N-(4-(Pyridin-2-yl)thiazol-2-yl)-2,3-dihydrobenzo[b][1,4]dioxine-6-carboxamide]?
**A.** viability at 10 µM (BGMK cells): 51 to 60%; % INCREASE IN SUMOylation over endogenous baseline level [1]: A (A = 10%-20% increase)

**Q.** How did the viability at 10 µM (BGMK cells) turn out when O=C(Nc1nc(-c2ccccn2)cs1)C1COc2ccccc2O1 (stereo not shown) [Compound C4, N-(4-(Pyridin-2-yl)thiazol-2-yl)-2,3-dihydrobenzo[b][1,4]dioxine-2-carboxamide] was run?
**A.** The viability at 10 µM was 61 to 85%.

**Q.** What about the viability at 10 µM (CSM14.1 cells) of the same compound?
**A.** The viability at 10 µM was 61 to 70%.

**Q.** What about the “% INCREASE IN SUMOylation” value [1] of the same compound?
**A.** The value was “D (D = 40%-60% increase in SUMOylation over baseline levels)”.

**Q.** How did the viability at 10 µM (BGMK cells) turn out when O=C(Nc1nc(-c2ccccn2)cs1)c1ccc(Cl)s1 [Compound C5, 5-Chloro-N-(4-(pyridin-2-yl)thiazol-2-yl)thiophene-2-carboxamide] was run?
**A.** Its viability at 10 µM is 41 to 50%.

**Q.** And the “% INCREASE IN SUMOylation” value [1]?
**A.** The value was “B (B = 21%-30% increase)”.

**Q.** With O=C(Nc1nc(-c2ccccn2)cs1)c1ccc(Br)s1 [Compound C6, 5-Bromo-N-(4-(pyridin-2-yl)thiazol-2-yl)thiophene-2-carboxamide] as the compound, how does the viability at 10 µM (BGMK cells) read?
**A.** Its viability at 10 µM is 61 to 85%.

**Q.** And the viability at 10 µM (CSM14.1 cells)?
**A.** The viability at 10 µM was 61 to 70%.

**Q.** What about the “% INCREASE IN SUMOylation” value [1] of the same compound?
**A.** The value was “C (C = 31%-40% increase)”.
